Assay results: paper PMC2851645, “An Odorant Receptor from the Southern House Mosquito Culex pipiens quinquefasciatus Sensitive to Oviposition Attractants” (PLoS ONE, 2010)
“Also recorded” adds a separate entry of the source. Where two headings read alike, the source gives them in different places.

Experiments:
CquiOR2 + CquiOR7 = CquiOR2 + CquiOR7 (Culex quinquefasciatus, UniProt D5LMR6); test: Two-electrode voltage clamp of Xenopus oocytes expressing CquiOR2 + CquiOR7; assay type: cell-based; conditions: for nH (Hill coefficient): Hill fit of concentration-response data, 5–16 oocytes; for Emax: read-out: Relative Efficacy; for current response in panel screen: each compound applied for 20 s at 10 µM; for relative efficacies (maximal responses) compared with indole: in words
CquiOR2 + CquiOR7, sequence (Q309I4 entry or part of it): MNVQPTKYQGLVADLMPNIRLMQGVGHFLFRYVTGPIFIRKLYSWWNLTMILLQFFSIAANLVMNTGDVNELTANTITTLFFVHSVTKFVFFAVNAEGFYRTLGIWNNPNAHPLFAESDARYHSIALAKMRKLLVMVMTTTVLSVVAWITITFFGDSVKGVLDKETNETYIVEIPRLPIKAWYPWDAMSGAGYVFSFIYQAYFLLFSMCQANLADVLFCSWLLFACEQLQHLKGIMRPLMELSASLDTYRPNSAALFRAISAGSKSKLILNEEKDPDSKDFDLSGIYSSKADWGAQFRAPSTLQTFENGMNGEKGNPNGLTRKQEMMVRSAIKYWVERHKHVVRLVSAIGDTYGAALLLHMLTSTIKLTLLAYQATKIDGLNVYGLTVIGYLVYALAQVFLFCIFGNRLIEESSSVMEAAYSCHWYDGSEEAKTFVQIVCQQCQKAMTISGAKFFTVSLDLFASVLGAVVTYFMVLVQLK
CquiOR2 + CquiOR7, sequence (D5LMR6 entry or part of it): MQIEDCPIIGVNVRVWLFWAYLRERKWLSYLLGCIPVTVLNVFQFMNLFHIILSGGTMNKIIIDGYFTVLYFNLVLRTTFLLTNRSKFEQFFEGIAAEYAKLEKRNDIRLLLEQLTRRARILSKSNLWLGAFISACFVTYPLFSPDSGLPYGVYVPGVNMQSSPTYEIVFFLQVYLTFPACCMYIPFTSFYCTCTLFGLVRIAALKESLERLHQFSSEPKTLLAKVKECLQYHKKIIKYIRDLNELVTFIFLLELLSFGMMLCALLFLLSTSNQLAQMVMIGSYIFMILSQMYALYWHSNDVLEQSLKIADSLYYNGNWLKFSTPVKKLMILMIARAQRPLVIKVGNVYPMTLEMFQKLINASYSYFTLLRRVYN
Protocol: Oocytes were surgically removed from mature Xenopus laevis frogs (Nasco). The care and use of Xenopus laevis frogs in this study were approved by the University of Miami Animal Research Committee and meet the guidelines of the National Institutes of Health. Follicle cells were removed by treatment with Collagenase B (Boehringer Mannhem) for 2 h at room temperature. CquiOR2 and CquiOR7 were transferred into pGEMHE [27]. Capped cRNA encoding each OR subunit was generated using mMessage mMachine kits (Ambion). 25 ng of cRNA encoding each OR subunit was injected into Stage V-VI Xenopus oocytes. Oocytes were incubated at 18°C in Barth's saline (in mM: 88 NaCl, 1 KCl, 2.4 NaHCO3, 0.3 CaNO3, 0.41 CaCl2, 0.82 MgSO4, 15 HEPES, pH 7.6, and 100 µg/ml amikacin) for 2–5 days prior to electrophysiological recording.
Odorant-induced currents were recorded under two-electrode voltage clamp from oocytes expressing ORs, using an automated parallel electrophysiology system (OpusXpress 6000A; Molecular Devices). Oocytes were perfused with ND96 (in mM: 96 NaCl, 2 KCl, 1 CaCl2, 1 MgCl2, 5 HEPES, pH 7.5). […] Micropipettes were filled with 3 M KCl and had resistances of 0.2–2.0 MΩ. The holding potential was −70 mV. Current responses were filtered (4-pole, Bessel, low pass) at 20 Hz (-3 db), sampled at 100 Hz and were captured and stored using OpusXpress 1.1 software (Molecular Devices). Initial analysis of electrophysiological data was done using Clampfit 9.1 software (Molecular Devices). Curve fitting of concentration-response data was done using Prism 4 (Graphpad). Concentration-response data were fit to the equation: I = Imax/(1+(EC50/X)^n) where I represents the current response at a given concentration of odorant, X; Imax is the maximal response; EC50 is the concentration of odorant yielding a half maximal response; n is the apparent Hill coefficient.

[1] = test system: ORN-B in the blunt-tipped trichoid sensilla A2; parameters: method as in PMID 19858490; conditions: cited from earlier work; for excitatory response of ORN-B: compounds tested individually
AgamOR2 = test system: AgamOR2; parameters: method as in PMID 20130575, PMID 20160092, PMID 14724626, PMID 18427108; conditions: cited from earlier work
gravid Culex mosquitoes = test system: gravid Culex mosquitoes; parameters: method as in PMID 18725946, PMID 10083752, PMID 1583482, PMID 15274442; conditions: indoor bioassays and field tests; cited from earlier work
AgamOR10 = test system: AgamOR10; parameters: method as in PMID 20130575, PMID 20160092, PMID 18427108; conditions: cited from earlier work
[2] = 20 s applications, Hill fit, mean ± SEM, 5–16 separate oocytes, read-out: EC50
[3] = maximum value from fit, as percentage of the maximum value for indole, mean ± SEM

SMILES: Cn1ccc2ccccc21 [1-Methylindole]
- EC50 (CquiOR2 + CquiOR7): 20 ± 6 µM
- nH (Hill coefficient) (CquiOR2 + CquiOR7; mean ± SEM): 1.3±0.5
- Emax (CquiOR2 + CquiOR7): 84 ± 9%

SMILES: Cc1cc2ccccc2[nH]1 [2-Methylindole]
- EC50 (CquiOR2 + CquiOR7; [2]): 7.5 ± 4.1 µM
- nH (Hill coefficient) (CquiOR2 + CquiOR7; mean ± SEM): 0.9±0.4
- Emax (CquiOR2 + CquiOR7; [3]): 106 ± 16%

SMILES: Cc1ccccc1O [2-Methylphenol]
- EC50 (CquiOR2 + CquiOR7): 7.3 ± 1.5 µM
- nH (Hill coefficient) (CquiOR2 + CquiOR7; mean ± SEM): 1.0±0.2
- current response in panel screen (CquiOR2 + CquiOR7): responded well; also recorded: best responses for phenolic compounds
- relative efficacies (maximal responses) compared with indole (CquiOR2 + CquiOR7): lower relative efficacies than indole
- Emax (CquiOR2 + CquiOR7): 70 ± 9%
- excitatory response of ORN-B [1]: eliciting the strongest response
- response of AgamOR2 (AgamOR2): strongly respond

SMILES: Cc1c[nH]c2ccccc12 [3-Methylindole]
- EC50 (CquiOR2 + CquiOR7; [2]): 20 ± 6 µM
- nH (Hill coefficient) (CquiOR2 + CquiOR7; mean ± SEM): 0.9±0.2
- Emax (CquiOR2 + CquiOR7; [3]): 92 ± 8%
- attraction of gravid Culex mosquitoes (gravid Culex mosquitoes): attractants
- response of AgamOR10 (AgamOR10): strongly respond
- response of AgamOR2 (AgamOR2): strongly respond

SMILES: Cc1cccc(O)c1 [3-methylphenol]
- response threshold compared with 2-methylphenol [1]: three orders of magnitude higher

SMILES: Cc1cccc2[nH]ccc12 [4-Methylindole]
- EC50 (CquiOR2 + CquiOR7; [2]): 3.6 ± 0.8 µM
- nH (Hill coefficient) (CquiOR2 + CquiOR7; mean ± SEM): 1.0±0.2
- relative efficacies (maximal responses) compared with indole (CquiOR2 + CquiOR7): lower relative efficacies than indole
- Emax (CquiOR2 + CquiOR7; [3]): 60 ± 4%

SMILES: Cc1ccc(O)cc1 [4-methylphenol]
- response threshold compared with 2-methylphenol [1]: three orders of magnitude higher
- response of AgamOR10 (AgamOR10): strongly respond

SMILES: Cc1ccc2[nH]ccc2c1 [5-Methylindole]
- EC50 (CquiOR2 + CquiOR7; [2]): 8.6 ± 2 µM
- nH (Hill coefficient) (CquiOR2 + CquiOR7; mean ± SEM): 1.1±0.2
- relative efficacies (maximal responses) compared with indole (CquiOR2 + CquiOR7): lower relative efficacies than indole
- Emax (CquiOR2 + CquiOR7; [3]): 59 ± 4%

SMILES: Cc1ccc2cc[nH]c2c1 [6-Methylindole]
- EC50 (CquiOR2 + CquiOR7; [2]): 3 ± 0.6 µM
- nH (Hill coefficient) (CquiOR2 + CquiOR7; mean ± SEM): 0.9±0.2
- relative efficacies (maximal responses) compared with indole (CquiOR2 + CquiOR7): lower relative efficacies than indole
- Emax (CquiOR2 + CquiOR7; [3]): 69 ± 4%

SMILES: Cc1cccc2cc[nH]c12 [7-Methylindole]
- EC50 (CquiOR2 + CquiOR7; [2]): 18 ± 3 µM
- nH (Hill coefficient) (CquiOR2 + CquiOR7; mean ± SEM): 1.1±0.2
- relative efficacies (maximal responses) compared with indole (CquiOR2 + CquiOR7): lower relative efficacies than indole
- Emax (CquiOR2 + CquiOR7; [3]): 67 ± 4%

SMILES: c1ccc2[nH]ccc2c1 [Indole]
- EC50 (CquiOR2 + CquiOR7): 0.28 ± 0.12 µM
- nH (Hill coefficient) (CquiOR2 + CquiOR7; mean ± SEM): 0.8±0.2
- selectivity for indole over the various methylindoles (CquiOR2 + CquiOR7; Xenopus oocyte system): 10- to 70 fold
- current response in panel screen (CquiOR2 + CquiOR7): largest current responses
- Emax (CquiOR2 + CquiOR7): 100%
- attraction of gravid Culex mosquitoes (gravid Culex mosquitoes): attractants
- excitatory response of ORN-B [1]: strongest dose-dependent responses
- selectivity for indole over methylindoles ([1]; single sensillum recordings from A2): three orders of magnitude selectivity
- response of AgamOR10 (AgamOR10): strongly respond
- response of AgamOR2 (AgamOR2): strongly respond
